Results on one compound are retold here after patent US20210169911A1, “PURINE AND PYRIMIDINE NUCLEOTIDES AS ECTO-5'-NUCLEOTIDASE INHIBITORS” (The United States of America,as represented by the …, priority 2018, published 2021).

In experiment [1] the test system is recombinant soluble human CD73. Put plainly: Radiometric CD73 inhibition assay, recombinant soluble human CD73. As to conditions: human vs rat CD73 Ki, Table 5. It counts as biochemical. On the procedure: The cDNA for the soluble human CD73 (Genbank accession no. NM_002526) was obtained from Prof. Dr. Norbert Sträter (University of Leipzig, Germany) (3). […] Sf9 insect cells were grown in Insect-[…] media (#: BE12-[…], Lonza, Switzerland) with 10 mg/l gentamicin and split at a ratio of 1:3 every fourth day. For transfection, cells were seeded into cell culture flasks (25 cm^2) at 60-70% confluence. 100 μl of cell medium and 1 μl of the vector DNA (1000 ng/μ1) were mixed with 2.5 μl of baculovirus genomic ProEasyTM vector DNA (AB vector, CA, USA) and combined with premixed 100 μl of cell medium and 8 μl of CellfectinTM II Reagent (Thermo Fisher Scientific, MA, USA). […] The cells were incubated for 30 min at rt, and for further 4 days at 27° C. Cells from the transfection procedure were detached from the bottom of the flasks and centrifuged for 5 min at 2000 g. 1.5 ml of the supernatant (viral stock) was added to 75 cm^2 cell culture flasks containing Sf9 cells (60-70% confluence), and the cells were incubated for four days at 27° C. Then 1.5 ml of the supernatant were taken and added to uninfected Sf9 cells in a 75 cm^2 flask. This was repeated five more times, using more cells and larger flasks after the third round of infections (150 cm^2 to which 3.0 ml of supernatant were added). The stock P8 was finally used for infection of the cells. For protein expression, 3 ml of the virus solution were used to infect 150 ml of cell media containing 2×10^6 cells/ml in a 500 ml Erlenmeyer flask, and they were incubated for 4 days at 27° C. with shaking (150 rpm). Then, cell suspensions were transferred to 50 ml falcon tubes and centrifuged at 15 min at 5000 g at 4° C. The supernatants were subjected to ultrafiltration using Amicon® Ultra-15, 10 kDa cut-off (Merck Millipore, MA, USA) at 5000 g for 15-30 min at 4° C. The concentrated protein was purified with HisPurTM Ni^2+-NTA spin columns (#: 88226, Thermo Fisher Scientific, MA, USA). The elution of the columns was performed as recommended in the instruction manual with adjusting the incubation time for protein binding to 1 h at 4° C. with an end-over-end mixer and an additional incubation step of 5 min with the elution buffer before eluting. Eluates were pooled and dialyzed (Membra-Cer, 14 kDa cut-off, 250 mm×44 mm×0.02 mm; Carl Roth, Germany) at 4° C. in 25 mM Tris, pH 7.4, with a volume adjusted to 40 times the volume of the elution fraction. […] The enzyme was aliquoted and stored at -80° C. until use.

A further experiment concerns the target T1, human P2Y6 receptor (Homo sapiens, UniProt Q15077).
T1 construct: expressed in transfected cells; host or cells: 1321N1 human astrocytoma cells
Put plainly: Human P2Y6 receptor assay, calcium mobilization in 1321N1 astrocytoma cells. It counts as cell-based. The following applies: 1321N1 cells expressing human P2Y6, read-out: hP2Y6 EC50 ± SEM. The method, then: Calcium mobilization induced by the nucleotide derivatives was measured in a human astrocytoma cell line (1321N1) expressing the human P2Y6 receptor, as previously described (33).
In general terms: Calcium assays in cells follow changes in intracellular calcium, usually with a dye or a luminescent sensor.

For experiment [2], the target named is T2, recombinant soluble rat CD73 (Rattus norvegicus, UniProt P21588).
T2 sequence (P21588 29-551 limits assumed): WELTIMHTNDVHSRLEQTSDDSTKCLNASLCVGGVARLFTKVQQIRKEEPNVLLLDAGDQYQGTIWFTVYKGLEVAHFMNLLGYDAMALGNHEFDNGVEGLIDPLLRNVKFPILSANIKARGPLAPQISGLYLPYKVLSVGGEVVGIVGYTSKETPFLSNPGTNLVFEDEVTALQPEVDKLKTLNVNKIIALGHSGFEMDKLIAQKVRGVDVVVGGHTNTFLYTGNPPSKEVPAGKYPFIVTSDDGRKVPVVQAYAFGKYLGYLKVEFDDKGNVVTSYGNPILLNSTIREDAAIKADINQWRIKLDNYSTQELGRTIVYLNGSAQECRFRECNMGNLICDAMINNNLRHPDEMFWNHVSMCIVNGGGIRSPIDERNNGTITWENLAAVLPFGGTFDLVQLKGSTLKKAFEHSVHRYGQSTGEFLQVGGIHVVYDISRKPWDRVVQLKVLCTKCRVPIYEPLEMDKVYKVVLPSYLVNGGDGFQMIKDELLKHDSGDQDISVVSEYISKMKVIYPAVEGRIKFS
The experiment in a line: Radiometric rat ecto-5′-nucleotidase (CD73) assay with [3H]AMP.
Protocol: After the enzymatic reaction, the substrate was separated from its product [2,8-^3H]adenosine by precipitation with lanthanum chloride followed by filtration through glass fiber filters (34). […] Ki values were calculated from the obtained IC50 values using the Cheng-Prusoff equation (6,7).
The assay was performed as previously described (41) using recombinant rat CD73 expressed in Sf9 insect cells (33). […] The mixture was incubated for 25 min at 37° C. The reaction was stopped by adding 500 μL of ice-cooled precipitation buffer containing 100 mM aqueous lanthanum chloride and 100 mM aqueous sodium acetate solution (pH 4.0). After 30 min, the precipitation was filtered through GF/B glass fiber filters (M-48, Brandel, Gaithersburg, Md., USA). After washing three times, 4 mL of the scintillation cocktail ULTIMA Gold XR was added and then quantified by scintillation counting (TRICARB 2900 TR, Packard/PerkinElmer). Three separate inhibition assays were performed in triplicate, concentration-response curves were fitted, and Ki values were calculated.
The assay was performed essentially as previously described.^D Stock solutions (10 mM) of the compounds were prepared in demineralized water and further dilutions were performed in assay reaction buffer (25 mM Tris, 140 mM sodium chloride, 25 mM sodium dihydrogen phosphate, pH 7.4). 10 μL of the inhibitor solution were added to 70 μL of assay reaction buffer. […] The enzymatic reaction was performed for 25 min at 37° C. in a shaking water bath. […] After the precipitation was completed (after at least 30 min on ice), the mixture was separated by filtration through GF/B glass fiber filters using a cell harvester (M-48, Brandel, Gaitherburg, Md., USA). After washing each reaction vial three times with 400 μl of cold (4° C.) demineralized water, 5 ml of the scintillation cocktail (ULTIMA Gold XR, PerkinElmer, MA, USA) was added and radioactivity was measured by scintillation counting (TRICARB 2900 TR, Packard/PerkinElmer; counting efficacy: 49-52%). Two controls were included and measured as duplicates. One reaction was performed without the inhibitor resulting in 100% enzyme activity (positive control) and one was incubated without the inhibitor and the enzyme and served as background control. The resulting data were subtracted from the background and were normalized with to the positive control. The results were plotted, and concentration-inhibition curves were fitted with GraphPad Prism 5 (GraphPad Software, La Jolla, USA).
After 30 min, the precipitation was filtered through GF/B glass fiber filters (M-48, Brandel, Gaithersburg, Md., USA). After washing three times, 4 mL of the scintillation cocktail ULTIMA Gold XR was added and then quantified by scintillation counting (TRICARB 2900 TR, Packard/PerkinElmer). Three separate inhibition assays were performed in triplicate, concentration-response curves were fitted, and K, values were calculated.

Experiment [3] has as its target T3, CD73 in human tonsillary tissue (Homo sapiens, UniProt P21589).
T3 construct: Palatine tonsils were obtained from adult patients with chronic tonsillitis; from tissue; host or cells: human palatine tonsil cryosections
T3 sequence (P21589 27-549): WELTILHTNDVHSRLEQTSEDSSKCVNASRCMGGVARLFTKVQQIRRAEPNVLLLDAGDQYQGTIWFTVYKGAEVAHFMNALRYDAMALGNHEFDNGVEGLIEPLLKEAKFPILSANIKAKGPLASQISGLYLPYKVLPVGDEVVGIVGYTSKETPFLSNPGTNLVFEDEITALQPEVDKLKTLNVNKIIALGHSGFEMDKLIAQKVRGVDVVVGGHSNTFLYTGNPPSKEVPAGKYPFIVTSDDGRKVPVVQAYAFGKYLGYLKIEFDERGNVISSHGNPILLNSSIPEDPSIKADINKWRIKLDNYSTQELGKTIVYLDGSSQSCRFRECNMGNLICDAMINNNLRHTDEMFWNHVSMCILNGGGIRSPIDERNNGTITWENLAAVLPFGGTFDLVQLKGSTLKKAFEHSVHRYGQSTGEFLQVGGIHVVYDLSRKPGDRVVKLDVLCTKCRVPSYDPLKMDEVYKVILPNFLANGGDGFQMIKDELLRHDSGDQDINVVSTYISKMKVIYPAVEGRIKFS
Put plainly: Human tonsillar CD73-mediated AMPase activity in tonsil cryosections. It counts as biochemical. The following applies: 1, 10, and 100 nM; mean pixel intensity, FIG. 10. The method, then: Palatine tonsils were obtained from adult patients with chronic tonsillitis undergoing routine tonsillectory. The tonsils were washed with phisiological salt solution, embedded in the cyro-mold with Tissue-Tek O.C.T. compound (Sakura Finetek Europe B.V., the Nethelands), cut using a cryostat and stored at −80° C. Tonsil cryoselctions were preincubated for 30 min in Trizma maleate sucrose buffer supplemented with the alkaline phosphatase inhibitor levamisole and different concentrations of compound 9h. The enzymatic reaction was then performed for 45 min at 37° C. in a final volume of […] of TMSB-buffered substrate solution containing Pb (NO3)2, CaCl2, and tested CD73 inhibitor at the same concentration. The lead orthophosphate precipitated in the course of nucleotidase activity was visualized as a brown deposit by incubating sections in (NH3)2S for 30s, followed by three washed in Trizma-maleate buffer for 5 min each. Slides were mounted with Aquatex medium (Merck, Germany). Multiple images of adjacent tissue areas were captured using a slide scanner and further stitched to a larger overview. The images of control and treated tissues were captured at identical exposure times and other settings and further acquired in parallel. Nucleotidase activities were quantified as mean pixel intensities after grayscale conversion.

The target in the next experiment is T4, human P2Y14 receptor (Homo sapiens, UniProt Q15391).
T4 construct: expressed in transfected cells; host or cells: CHO cells
T4 sequence (Q15391 1-338): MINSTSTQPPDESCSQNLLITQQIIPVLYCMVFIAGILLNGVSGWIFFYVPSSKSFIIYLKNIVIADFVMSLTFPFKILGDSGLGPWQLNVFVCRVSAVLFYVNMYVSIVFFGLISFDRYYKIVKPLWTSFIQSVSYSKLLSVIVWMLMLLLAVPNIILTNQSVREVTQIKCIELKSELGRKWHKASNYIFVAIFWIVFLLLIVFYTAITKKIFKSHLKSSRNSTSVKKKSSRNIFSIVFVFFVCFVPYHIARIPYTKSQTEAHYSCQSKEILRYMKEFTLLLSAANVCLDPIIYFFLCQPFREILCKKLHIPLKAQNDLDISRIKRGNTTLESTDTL
Put plainly: Human P2Y14 receptor assay, inhibition of binding of a fluorescent antagonist, flow cytometry in CHO cells. The following applies: CHO cells expressing human P2Y14, read-out: hP2Y14 IC50 ± SEM. The method, then:
Inhibition of binding of a high affinity fluorescent antagonist was measured using flow cytometry in a CHO cell line expressing the human P2Y14 receptor, as previously described (34).
(In general: In flow cytometry, cells or beads pass a laser one at a time.)

In experiment [4] the target is T5, membrane-bound CD73 (membrane preparation of MDA-MB-231 cells) (Homo sapiens, UniProt P21589).
T5 sequence (P21589 27-549): T3 sequence (P21589 27-549)
The experiment in a line: Radiometric CD73 inhibition assay, membrane preparations of MDA-MB-231 cells.
Protocol: After the enzymatic reaction, the substrate was separated from its product [2,8-^3H]adenosine by precipitation with lanthanum chloride followed by filtration through glass fiber filters (34). For compounds that inhibited CD73 activity by more than 50% at an initial screening concentration of 1 μM, full concentration-response curves were determined in at least three separate experiments performed in duplicates using 10 different concentrations of inhibitor. Ki values were calculated from the obtained IC50 values using the Cheng-Prusoff equation (6,7). […]
The assay was performed essentially as previously described.^D Stock solutions (10 mM) of the compounds were prepared in demineralized water and further dilutions were performed in assay reaction buffer (25 mM Tris, 140 mM sodium chloride, 25 mM sodium dihydrogen phosphate, pH 7.4). […] After washing each reaction vial three times with 400 μl of cold (4° C.) demineralized water, 5 ml of the scintillation cocktail (ULTIMA Gold XR, PerkinElmer, MA, USA) was added and radioactivity was measured by scintillation counting (TRICARB 2900 TR, Packard/PerkinElmer; counting efficacy: 49-52%). Two controls were included and measured as duplicates. […]

Bounds are passed on as bounds.

Usually EC50 stands for the concentration at which the effect is half-maximal. For orientation: Ki means the equilibrium dissociation constant of an inhibitor or competing ligand from its target. Broadly, the IC50 is the midpoint of a concentration-inhibition curve.

T1 sequence (Q15077 whole entry): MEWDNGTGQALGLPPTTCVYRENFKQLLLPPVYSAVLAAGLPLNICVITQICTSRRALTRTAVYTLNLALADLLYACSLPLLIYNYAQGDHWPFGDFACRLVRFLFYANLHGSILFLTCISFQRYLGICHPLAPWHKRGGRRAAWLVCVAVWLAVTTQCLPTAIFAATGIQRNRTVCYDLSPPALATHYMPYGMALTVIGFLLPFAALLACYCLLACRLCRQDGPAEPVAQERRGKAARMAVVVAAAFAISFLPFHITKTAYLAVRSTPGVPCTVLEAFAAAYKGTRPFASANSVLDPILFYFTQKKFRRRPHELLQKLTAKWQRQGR

Regarding `Cn1c(=O)n([C@@H]2O[C@H](COP(=O)(O)CP(=O)(O)O)[C@@H](O)[C@H]2O)cc/c1=N/OCc1ccccc1` [Compound 9h, N^4-[O-(4-Benzyloxy)]-3-methyl-cytidine-5′-O-[(phosphonomethyl)phosphonic acid]], in experiment [1], the “potency at human CD73 as compared to the rat enzyme” value is reported as “somewhat less potent”. In addition, the EC50 on human P2Y6 receptor is over 3000 µM. In addition, the Ki in experiment [2] came out at 0.00367 µM; in experiment [4], 0.00796 µM. Further, the “inhibition of the catalytic activity of CD73 in human tonsillary tissue” value in experiment [3] is given as “inhibited the catalytic activity of CD73 in a concentration-dependent manner”. The 50% inhibitory concentration (IC50) at human P2Y14 receptor is over 3000 µM.
